These results are taken from patent US12030878B2 (BRISTOL-MYERS SQUIBB COMPANY, priority 2017, dated 2024).

Common to all, as to format: cell-based
In one assay the target is T1, human TLR7 (Homo sapiens, UniProt Q9NYK1).
T1 construct: host or cells: HEK-Blue cells
T1 sequence (Q9NYK1 27-1049): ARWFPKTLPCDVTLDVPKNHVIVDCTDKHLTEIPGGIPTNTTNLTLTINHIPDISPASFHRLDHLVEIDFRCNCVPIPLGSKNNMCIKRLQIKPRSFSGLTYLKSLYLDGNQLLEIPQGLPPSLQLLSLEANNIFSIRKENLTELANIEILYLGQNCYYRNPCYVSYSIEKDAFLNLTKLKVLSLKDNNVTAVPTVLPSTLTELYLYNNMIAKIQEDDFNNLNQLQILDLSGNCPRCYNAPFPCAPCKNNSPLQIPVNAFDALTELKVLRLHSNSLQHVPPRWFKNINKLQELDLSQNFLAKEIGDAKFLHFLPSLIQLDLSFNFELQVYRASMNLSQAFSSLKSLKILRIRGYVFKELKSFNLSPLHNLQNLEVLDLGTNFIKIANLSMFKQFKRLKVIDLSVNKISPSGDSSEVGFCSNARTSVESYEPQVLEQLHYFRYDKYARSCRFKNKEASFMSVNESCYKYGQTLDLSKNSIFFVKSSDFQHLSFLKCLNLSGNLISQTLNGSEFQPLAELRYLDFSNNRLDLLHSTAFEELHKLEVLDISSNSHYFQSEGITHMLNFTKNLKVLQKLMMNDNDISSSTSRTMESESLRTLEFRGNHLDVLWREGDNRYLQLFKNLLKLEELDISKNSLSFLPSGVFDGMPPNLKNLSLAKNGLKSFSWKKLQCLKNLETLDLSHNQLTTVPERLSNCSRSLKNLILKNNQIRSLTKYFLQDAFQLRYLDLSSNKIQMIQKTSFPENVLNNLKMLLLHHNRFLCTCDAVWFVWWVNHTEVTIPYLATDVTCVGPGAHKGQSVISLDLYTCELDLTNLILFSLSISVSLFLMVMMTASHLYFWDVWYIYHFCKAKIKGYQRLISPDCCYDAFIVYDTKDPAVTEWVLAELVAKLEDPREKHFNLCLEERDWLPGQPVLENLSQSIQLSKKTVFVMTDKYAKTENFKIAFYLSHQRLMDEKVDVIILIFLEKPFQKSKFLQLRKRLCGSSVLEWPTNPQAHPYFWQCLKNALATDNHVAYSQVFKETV
Nature of the assay: TLR7 inhibition reporter assay (HEK-Blue SEAP). To be noted: HEK-Blue cells overexpressing human TLR7, stimulated with gardiquimod 7.5 μM, 22 hour incubation. The procedure, abridged:
(§1)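 SEAP read-out via HEK-Blue Detection medium after 22 h at 37 °C; percent inhibition relative to agonist-plus-DMSO and known-inhibitor wells. Agonists: TLR7 gardiquimod 7.5 μM, TLR8 R848 15.9 μM, TLR9 ODN2006 5 nM. Dose range 0.05 nM–50 μM, 30 min compound pre-treatment at RT.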
On the technique in general: In a reporter assay the amount or activity of a reporter protein is the signal.

In a further assay the target is T2, human TLR8 (Homo sapiens, UniProt Q9NR97).
T2 construct: host or cells: HEK-Blue cells
T2 sequence (Q9NR97 27-1041): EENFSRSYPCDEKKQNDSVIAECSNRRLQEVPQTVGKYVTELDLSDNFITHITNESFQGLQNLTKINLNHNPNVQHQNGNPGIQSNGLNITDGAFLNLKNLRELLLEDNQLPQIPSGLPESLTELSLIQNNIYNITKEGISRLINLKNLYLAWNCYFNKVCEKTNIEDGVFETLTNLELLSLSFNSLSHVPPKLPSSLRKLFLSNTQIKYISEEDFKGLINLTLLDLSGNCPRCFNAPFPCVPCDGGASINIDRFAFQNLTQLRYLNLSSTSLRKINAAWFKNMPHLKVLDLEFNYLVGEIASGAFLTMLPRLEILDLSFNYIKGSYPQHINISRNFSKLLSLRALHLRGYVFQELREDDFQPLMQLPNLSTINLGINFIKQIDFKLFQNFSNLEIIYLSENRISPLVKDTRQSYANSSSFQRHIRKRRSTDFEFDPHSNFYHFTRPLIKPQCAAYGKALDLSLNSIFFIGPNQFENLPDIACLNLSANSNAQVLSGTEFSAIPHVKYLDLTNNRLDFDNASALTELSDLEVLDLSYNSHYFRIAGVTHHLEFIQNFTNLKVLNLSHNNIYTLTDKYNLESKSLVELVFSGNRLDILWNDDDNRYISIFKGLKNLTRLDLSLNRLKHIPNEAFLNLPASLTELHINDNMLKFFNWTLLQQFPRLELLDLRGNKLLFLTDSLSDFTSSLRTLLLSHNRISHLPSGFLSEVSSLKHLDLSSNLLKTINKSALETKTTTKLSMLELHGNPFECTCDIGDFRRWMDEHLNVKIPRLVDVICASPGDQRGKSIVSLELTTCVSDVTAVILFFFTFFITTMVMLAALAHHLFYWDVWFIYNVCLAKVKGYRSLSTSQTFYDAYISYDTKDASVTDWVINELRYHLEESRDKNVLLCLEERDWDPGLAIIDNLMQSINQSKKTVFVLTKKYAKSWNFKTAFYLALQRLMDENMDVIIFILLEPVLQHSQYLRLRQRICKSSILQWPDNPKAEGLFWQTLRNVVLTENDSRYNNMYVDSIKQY
Briefly: TLR8 inhibition reporter assay (HEK-Blue SEAP). The note with it: HEK-Blue cells overexpressing human TLR8, stimulated with R848 15.9 μM, 22 hour incubation. The procedure, abridged: as §1

The next assay addresses T3, human TLR9 (Homo sapiens, UniProt Q9NR96).
T3 construct: host or cells: HEK-Blue cells
T3 sequence (Q9NR96 26-1032): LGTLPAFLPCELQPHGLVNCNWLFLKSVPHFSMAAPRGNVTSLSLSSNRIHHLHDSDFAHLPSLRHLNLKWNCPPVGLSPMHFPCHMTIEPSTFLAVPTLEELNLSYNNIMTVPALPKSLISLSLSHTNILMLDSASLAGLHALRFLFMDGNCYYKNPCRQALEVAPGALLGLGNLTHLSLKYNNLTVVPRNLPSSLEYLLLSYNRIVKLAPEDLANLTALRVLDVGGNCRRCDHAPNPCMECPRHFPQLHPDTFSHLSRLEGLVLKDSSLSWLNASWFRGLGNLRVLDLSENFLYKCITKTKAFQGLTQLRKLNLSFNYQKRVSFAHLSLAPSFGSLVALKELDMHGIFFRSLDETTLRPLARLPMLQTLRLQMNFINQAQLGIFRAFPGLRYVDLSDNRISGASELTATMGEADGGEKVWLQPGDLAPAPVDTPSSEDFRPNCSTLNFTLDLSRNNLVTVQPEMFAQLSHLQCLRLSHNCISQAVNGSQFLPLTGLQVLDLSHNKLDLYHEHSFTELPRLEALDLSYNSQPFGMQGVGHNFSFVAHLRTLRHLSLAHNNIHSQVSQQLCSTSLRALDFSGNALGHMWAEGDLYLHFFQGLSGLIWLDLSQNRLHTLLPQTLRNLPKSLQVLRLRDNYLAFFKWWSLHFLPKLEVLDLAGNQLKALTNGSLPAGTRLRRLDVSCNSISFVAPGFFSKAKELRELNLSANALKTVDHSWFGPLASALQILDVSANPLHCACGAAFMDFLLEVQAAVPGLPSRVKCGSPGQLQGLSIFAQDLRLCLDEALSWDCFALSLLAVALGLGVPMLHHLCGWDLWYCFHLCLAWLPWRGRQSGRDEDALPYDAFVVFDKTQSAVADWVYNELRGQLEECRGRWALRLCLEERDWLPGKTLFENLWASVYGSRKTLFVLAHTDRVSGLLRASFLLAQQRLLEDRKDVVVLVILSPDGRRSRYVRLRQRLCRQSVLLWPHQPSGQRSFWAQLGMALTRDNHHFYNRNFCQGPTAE
Nature of the assay: TLR9 inhibition reporter assay (HEK-Blue SEAP). The note with it: HEK-Blue cells overexpressing human TLR9, stimulated with ODN2006 5 nM, 22 hour incubation. The procedure, abridged:
as §1

As a reminder, the IC50 is the concentration that gives 50% inhibition. High values mean a need for much substance, low ones inhibition by little substance. On to `Cc1c(-c2[nH]c3ccc(OCC4CCN(CC(=O)N(C)C)CC4)cc3c2C(C)C)cn(C)c(=O)c1C` [Example 88, 2-(4-(((3-isopropyl-2-(1,4,5-trimethyl-6-oxo-1,6-dihydropyridin-3-yl)-1H-indol-5-yl)oxy)methyl)piperidin-1-yl)-N,N-dimethylacetamide], for which the IC50 against human TLR7 turned out to be 50.9 nM; against human TLR8, 22.4 nM; against human TLR9 it was 15300 nM.
As to `Cc1c(-c2[nH]c3ccc(OCC4CCN(CC(=O)N(C)C)CC4)cc3c2C(C)C)cn2cnnc2c1C` [Example 89, 2-(4-(((2-(7,8-dimethyl-[1,2,4]triazolo[4,3-a]pyridin-6-yl)-3-isopropyl-1H-indol-5-yl)oxy)methyl)piperidin-1-yl)-N,N-dimethylacetamide], the values for the IC50 at human TLR7, at human TLR8 and on human TLR9 were 7.6 nM, 16.5 nM and 6870 nM, respectively.
In the same order, the values of `Cc1c(-c2[nH]c3ccc(OC4CCN(CC(=O)N(C)C)CC4)cc3c2C(C)C)cn2cnnc2c1C` [Example 90, 2-(4-((2-(7,8-dimethyl-[1,2,4]triazolo[4,3-a]pyridin-6-yl)-3-isopropyl-1H-indol-5-yl)oxy)piperidin-1-yl)-N,N-dimethylacetamide] are 8.3 nM, 13.3 nM and 12900 nM.
In the same order, the values of `Cc1cc(-c2[nH]c3ccc(OCC4CCN(CCS(C)(=O)=O)CC4)cc3c2C(C)C)cn2ncnc12` [Example 91, 6-(3-isopropyl-5-((1-(2-(methylsulfonyl)ethyl)piperidin-4-yl)methoxy)-1H-indol-2-yl)-8-methyl-[1,2,4]triazolo[1,5-a]pyridine] are 0.7 nM, 1 nM and 9580 nM.
In the same order, the values of `Cc1cc(-c2[nH]c3ccc(OCC4CN(CCS(C)(=O)=O)C4)cc3c2C(C)C)cn2ncnc12` [Example 92, 6-(3-isopropyl-5-((1-(2-(methylsulfonyl)ethyl)azetidin-3-yl)methoxy)-1H-indol-2-yl)-8-methyl-[1,2,4]triazolo[1,5-a]pyridine] are 1.2 nM, 3.8 nM and 6040 nM.
With `Cc1cc(-c2[nH]c3ccc(OCC4CCCNC4)cc3c2C(C)C)cc(C)n1` (stereo not drawn) [Example 94, 2-(2,6-dimethylpyridin-4-yl)-3-isopropyl-5-(piperidin-3-ylmethoxy)-1H-indole], the IC50 against human TLR7 was 3 nM; against human TLR8, 4.7 nM; against human TLR9, 243 nM.
With `Cc1cc(-c2[nH]c3ccc(OC4CCN(C(=O)CN(C)C)CC4)cc3c2C(C)C)cc(C)n1` [Example 95, 2-(dimethylamino)-1-(4-((2-(2,6-dimethylpyridin-4-yl)-3-isopropyl-1H-indol-5-yl)oxy)piperidin-1-yl)ethanone], the IC50 came to 0.5 nM against human TLR7, 10.4 nM against human TLR8 and 419 nM on human TLR9.
The like results for `Cc1cc(-c2[nH]c3ccc(OCC4CCN(C(=O)CN(C)C)CC4)cc3c2C(C)C)cc(C)n1` [Example 96, 2-(dimethylamino)-1-(4-(((2-(2,6-dimethylpyridin-4-yl)-3-isopropyl-1H-indol-5-yl)oxy)methyl)piperidin-1-yl)ethan-1-one] were, in that order, 2.6 nM, 9.8 nM and 346 nM.
With `Cc1cc(-c2[nH]c3ccc(OCC4CCN(C(=O)CN(C)C)CC4)cc3c2C(C)C)cn(C)c1=O` [Example 97, 5-(5-((1-(dimethylglycyl)piperidin-4-yl)methoxy)-3-isopropyl-1H-indol-2-yl)-1,3-dimethylpyridin-2(1H)-one], the IC50 turned out to be 3.5 nM at human TLR7, 5.6 nM on human TLR8 and 16800 nM at human TLR9.
The like results for `Cc1cc(-c2[nH]c3ccc(O[C@H]4CCCN(C(=O)CN(C)C)C4)cc3c2C(C)C)cn(C)c1=O` [Example 98, (S)-5-(5-((1-(dimethylglycyl)piperidin-3-yl)oxy)-3-isopropyl-1H-indol-2-yl)-1,3-dimethylpyridin-2(1H)-one] were, in that order, 7.6 nM, 16.5 nM and 11100 nM.
The like results for `Cc1cc(-c2[nH]c3ccc(O[C@H]4CCCN(C(=O)CN(C)C)C4)cc3c2C(C)C)cn2ncnc12` [Example 99, (S)-2-(dimethylamino)-1-(3-((3-isopropyl-2-(8-methyl-[1,2,4]triazolo[1,5-a]pyridin-6-yl)-1H-indol-5-yl)oxy)piperidin-1-yl)ethan-1-one] were, in that order, 3.1 nM, 25.2 nM and 4870 nM.
In the same order, the values of `Cc1cc(-c2[nH]c3ccc(OC4CCN(C(=O)CN(C)C)CC4)cc3c2C(C)C)cn(C)c1=O` [Example 100, 5-(5-((1-(dimethylglycyl)piperidin-4-yl)oxy)-3-isopropyl-1H-indol-2-yl)-1,3-dimethylpyridin-2(1H)-one] are 4.1 nM, 10.4 nM and 9840 nM.
